In patent US8354387B2, “Methods and compositions for delivering siRNA into mammalian cells” (Centre National de la Recherche Scientifique, priority 2004, dated 2013):

Test system: human fibroblasts (Hs68)
Experiment: pRL-SV40 plasmid transfection of synchronized or arrested cells (luciferase activity)
Assay type: cell-based
Details: for luciferase activity in serum-starved, arrested cells in comparison with dividing cells: 24 hrs after transfection; for transfection efficiency after 24 hrs, relative to expression after 48 hrs: synchronized Hs68, pRL-SV40, 24 hrs
Experimental: FIG. 2: The NLS of MPG is essential for nuclear translocation: A/ Purified GST-importin α and β were coupled onto GST Sepharose resin and incubated in batch with MPG/DNA or MPG^ΔNLS/DNA complexes for 1 hr, extensively washed and incubated with […] glutathione to elute the complexes. DNA was then extracted and analyzed by agarose gel electrophoresis (0.8%). […] B/ Delivery of pRL-SV40 plasmid: MPG/DNA (black boxes) or MPG^ΔNLS/DNA (grey boxes) complexes formed at a charge ratio of 5/1 with 100 ng pRL-SV40 plasmid encoding the reporter gene luciferase were overlaid onto synchronized or arrested (-FCS) human fibroblasts (Hs68). Luciferase activity was monitored 12 hrs and 24 hrs after release from synchrony, or after 24 hrs for arrested cells and 48 hrs for asynchronous cells. Control transfections were performed with Lipofectamine™ (white boxes) or naked plasmid (dashed boxes).
Hs68, Cos-7 and HeLa cell lines were cultured in Dulbecco's Modified Eagle's Medium supplemented with 2 mM glutamine, 1% antibiotics (streptomycin 10 000 μg/ml, penicillin, 10,000 IU/ml) and 10% (w/v) fetal calf serum (FCS) at 37° C. in a humidified atmosphere containing 5% CO2 as described previously (18). For MPG or MPG^ΔNLS-mediated gene delivery, peptide carrier/DNA complexes were formed in DMEM or PBS (500 μl of DMEM containing 100 ng of DNA complexed with MPG at a charge ratio 5:1) and incubated for 30 min at 37° C. Cells grown to 60% confluence were then overlaid with these preformed complexes. After 30 min incubation at 37° C., 1 ml of fresh DMEM supplemented with 10% fetal calf serum was added to the cells, without removing the overlay of carrier/DNA, and cells were returned to the incubator.
For cell cycle-dependent studies, Hs68 fibroblasts were synchronized by serum deprivation for 40 hrs, then restimulated to enter the cycle and grow into early G1 for 4 hrs by addition of fresh DMEM supplemented with 20% FCS, and incubated in the presence of MPG/DNA complexes as described above. Luciferase activity was monitored as described previously (19) and control transfection experiments were performed using Lipofectamine™. When transfected at 4° C., cells were incubated for 1 hour at 4° C. prior to transfection, then incubated with MPG/DNA complexes for another 2 hours at 4° C., extensively washed and finally returned to incubation at 37° C. in fresh medium supplemented with serum. When transfections were performed in the presence of bafilomycin A ([…]), cytochalasin B (50 μg/ml) or chloroquine (100 μM), cells were preincubated with these inhibitors of endocytosis for 1 hour prior to transfection.
In order to study the impact of the NLS of MPG on nuclear translocation of plasmids, transfection experiments were performed on synchronized or growth-arrested cells with either MPG or its NLS mutant. Cells were synchronized in G0 by serum starvation then released back into the cell cycle by addition of serum. 4 hours after release, cells were transfected with MPG/DNA or MPG^ΔNLS/DNA complexes and transgene expression was monitored 12 hours later, when most of the cells were in late G1, and […] later, in late G2 prior to mitosis. Data were normalized with luciferase activity obtained 48 hours after transfection, and compared with asynchronous cells. […] After 24 hrs, transfection efficiency reached 70%. In contrast, when transfection was performed with MPG^ΔNLS (SEQ ID NO:3), luciferase activity was negligible after 12 hrs (7%), and only reached 26% after 24 hrs. […]

Sequence | luciferase activity in serum-starved, arrested cells in comparison with dividing cells | transfection efficiency after 24 hrs, relative to expression after 48 hrs | luciferase expression after 12 hrs, relative to expression after 48 hrs (synchronized Hs68, pRL-SV40, 12 hrs)
GALFLGFLGAAGSTMGAWSQPKKKRKV (carrier peptide) [MPG, bipartite amphipathic peptide derived from fusion peptide domain of HIV-1 gp41 and NLS of SV40 large T antigen] | 50% | 70% | –
GALFLGFLGAAGSTMGAWSQPKSKRKV (carrier peptide) [MPG^ΔNLS, MPG variant with single mutation of the second lysine residue in the NLS motif to serine] | no transfection was observed | 26% | 7%
